Experimental findings from patent publication US7232827B2, “Heteroaryl substituted 2-pyridinyl and 2-pyrimidinyl-6,7,8,9-tetrahydropyrimido[1,2-a]pyrimidin-4-one derivatives” (Sanofi-Aventis, priority 2002, dated 2007) are described below.

This test deals with GSK3β (Homo sapiens, UniProt P49841). Briefly: Inhibitory activity against GSK3β (33P-ATP phosphorylation of prephosphorylated GS1 peptide). The conditions noted are these: single compounds; first or second protocol not specified. The format is biochemical. As for the experimental part: Two different protocols can be used.
GSK3β, sequence (P49841 whole entry, species assumed): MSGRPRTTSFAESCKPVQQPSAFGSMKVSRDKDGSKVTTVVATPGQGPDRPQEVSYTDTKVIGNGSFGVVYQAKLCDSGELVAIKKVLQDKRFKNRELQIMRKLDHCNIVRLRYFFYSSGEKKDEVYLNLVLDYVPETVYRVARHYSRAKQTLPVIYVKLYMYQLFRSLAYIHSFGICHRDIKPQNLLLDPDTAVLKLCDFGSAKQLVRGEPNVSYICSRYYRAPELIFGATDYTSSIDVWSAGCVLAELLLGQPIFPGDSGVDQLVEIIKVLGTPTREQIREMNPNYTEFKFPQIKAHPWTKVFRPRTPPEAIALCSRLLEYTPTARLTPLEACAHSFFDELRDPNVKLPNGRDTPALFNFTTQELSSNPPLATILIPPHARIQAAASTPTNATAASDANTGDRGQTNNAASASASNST
In a first protocol: 7.5 μM of prephosphorylated GS1 peptide and 10 μM ATP (containing 300,000 cpm of 33P-ATP) were incubated in 25 mM Tris-HCl, pH 7.5, 0.6 mM DTT, 6 mM MgCl2, 0.6 mM EGTA, 0.05 mg/ml BSA buffer for 1 hour at room temperature in the presence of GSK3β (total reaction volume: 100 microliters).
In a second protocol: 4.1 μM of prephosphorylated GS1 peptide and 42 μM ATP (containing 260,000 cpm 33P-ATP) were incubated in 80 mM Mes-NaOH, pH 6.5, 1 mM Mg acetate, 0.5 mM EGTA, 5 mM 2-mercaptoethanol, 0.02% Tween 20, 10% glycerol buffer for 2 hours at room temperature in the presence of GSK3β.
Inhibitors were solubilised in DMSO (final solvent concentration in the reaction medium, 1%).
The reaction was stopped with 100 microliters of a solution made of 25 g polyphosphoric acid (85% P2O5), 126 ml 85% H3PO4, H2O to 500 ml and then diluted to 1:100 before use. An aliquot of the reaction mixture was then transferred to Whatman P81 cation exchange filters and rinsed with the solution described above. Incorporated 33P radioactivity was determined by liquid scintillation spectrometry.
The phosphorylated GS-1 peptide had the following sequence: NH2-[…](P)EDEE-COOH.

In turn, `Cc1ccc2c(n1)CC(CN1CC(C)(C)Cn3c1nc(-c1ccncc1)cc3=O)C2` (racemic) [compound 4 of table 1A, (+/−)-7,7-Dimethyl-9-(2-methyl-6,7-dihydro-5H-[1]pyrindin-6-ylmethyl) -2-(pyridin-4-yl)-6,7,8,9-tetrahydro-pyrimido[1,2-a]pyrimidin-4-one] yielded an IC50 of 8 nM.

Compound `CC1CCn2c(nc(-c3ccncn3)cc2=O)N1CC1COc2ccccc2O1` (centres unmarked) [compound 8 of table 2B, 9-(2,3-Dihydro-benzo[1,4]dioxin-2-ylmethyl)-8-methyl-2-pyrimidin-4-yl-6,7,8,9-tetrahydro-pyrimido[1,2-a]pyrimidin-4-one] registered an IC50 of 15 nM.
